Laboratory results published in paper PMC4745082, “A Novel PET Imaging Probe for the Detection and Monitoring of Translocator Protein 18 kDa Expression in Pathological Disorders” (Scientific Reports, 2016).
Entries after “also recorded” stand apart in the source; their conditions may differ.

Legend:
TSPO = TSPO (Rattus norvegicus, UniProt P16257); test: microPET in LPS-induced neuroinflammation rat model; assay type: in vivo; parameters: from tissue; host or cells: Living rat brain (ipsilateral and contralateral striatum), LPS-injected Sprague-Dawley rats
Description: Male Sprague-Dawley rats weighing 200–250 g were used for the brain inflammation model and neuroinflammation was induced using lipopolysaccharide (LPS; Sigma-Aldrich, St. Louis, MO, U.S.A.) as previously described. In all rats used for sequential PET scans, microglia activation between the ipsilateral and contralateral areas was determined by CD68 immunohistochemical staining.
Five LPS-induced neuroinflammation rats (219.2 ± 14.1 g) were used for brain PET imaging at 4 days post-LPS injection. Before the scan, the rats were anesthetized with 2% isoflurane in a 7:3 mixture of N2/O2. PET imaging of the rat brain was performed in a dedicated small animal PET/CT (NanoPET/CT, Bioscan, Inc., U.S.A.) with a 10-cm axial field-of-view (FOV) and a 12-cm transaxial FOV. […] To determine the TSPO selectivity and TSPO specificity of the PET images, flumazenil (5 mg/kg intravenously) was administered at 15 min post [^18F]CB251 injection via jugular catheter. Subsequently, PBR28 (5 mg/kg intravenously) was injected 30 min later via jugular catheter in the same LPS-induced neuroinflammation rat model. Three human glioblastoma U87-MG-bearing mice were used for TSPO-rich cancer PET imaging. PET scans of the mice, anesthetized with 2% isoflurane, were performed with a 9.3-cm axial, 8.4-cm trans-axial FOV scanner. At the end of each study, the list-mode data were sorted into a dynamic scan consisting of 54 frames for 90 min. The acquired images were reconstructed by the 3-D Adjoints Monte Carlo method, which included scatter and random corrections. A region of interest (ROI) with a 2-mm radius was delineated in the ipsilateral lesioned striatum by the intensely visualized region in the summed image of all the frames. Regional uptake of radioactivity was decay-corrected to the injection time and was expressed as the standardized uptake value (SUV), which was normalized to the injected radioactivity and animal body weight. Analysis of the PET images was performed using PMOD software v.3.1 (PMOD Technologies Ltd., Zurich, Switzerland). The time activity curve (TAC) representing the variation in radioligand concentration according to the time-course was estimated for the ipsilateral striatum.

[1] = system: human glioblastoma U87-MG xenografts; parameters: species or system mice; settings: mouse, in vivo
Description: Another in vivo test of [^18F]CB251 was performed in U87-MG-bearing mice using a microPET scanner (Fig. 6). Tumour cells were engrafted on the left thigh of Balb/c nude mice. [^18F]CB251 was administered intravenously after the tumour volume reached approximately 364.5 ± 32.2 mm^3 and a dynamic PET scan was performed. […] In particular, [^18F]CB251 provided a tumour accumulation (1.96 ± 0.11%ID/g at 1 h post injection) and a visible image of the tumour in summed PET images.
U87-MG cells (ATCC) were cultured in Dulbecco’s modified Eagle’s medium supplemented with 4 mM L-glutamine, 4,500 mg/L glucose, 1 mM sodium pyruvate, […] sodium bicarbonate, 10% FBS and antibiotic-antimycotic (Gibco, Grand Island, NY, USA) at 37 °C in a humidified atmosphere of 5% CO2. U87-MG cells were cultured for 2–3 days without changing the medium and were harvested with trypsin-EDTA in PBS. Male Balb/c nu/nu mice, obtained at 6–7 weeks of age (Orient Bio Inc., Seongnam, Korea), were subcutaneously injected in the right shoulder with 5 × 10^6 U87-MG cells suspended in 100 μL of 100 mM PBS (pH 7.4). Animal protocols were approved by the Seoul National University Bundang Hospital Animal Care and Use Committee and the methods were carried out in accordance with the approved guidelines. We also performed calliper measurements of the longest perpendicular tumour diameters.
Five LPS-induced neuroinflammation rats (219.2 ± 14.1 g) were used for brain PET imaging at 4 days post-LPS injection. Before the scan, the rats were anesthetized with 2% isoflurane in a 7:3 mixture of N2/O2. PET imaging of the rat brain was performed in a dedicated small animal PET/CT (NanoPET/CT, Bioscan, Inc., U.S.A.) with a 10-cm axial field-of-view (FOV) and a 12-cm transaxial FOV. […] Regional uptake of radioactivity was decay-corrected to the injection time and was expressed as the standardized uptake value (SUV), which was normalized to the injected radioactivity and animal body weight. […]

[2] = assay type: in vitro ADME; settings: 2 h
Description: The in vitro stability of [^18F]CB251 was assayed by monitoring both the radio-TLC and the radio-HPLC profiles to determine its radiochemical purity. To assess the in vitro serum stability, 100 μL of [^18F]CB251 in 10% EtOH/saline was incubated with 0.5 mL of human serum from a healthy volunteer for 2 h at 37 °C and the solution was analysed at 0, 10, 30, 60 and 120 min by a radio-TLC scanner using MeOH-CH2Cl2 (5:95) as the developing solvent. Separately, 100 μL of [^18F]CB251 in 10% EtOH/saline was also incubated with 0.9 mL of human serum from a healthy volunteer for 2 h at 37 °C. Aliquots (200 μL) were taken from the sample at time points of 0, 30, 60 and 120 min and mixed with absolute acetonitrile (200 μL). The mixture was centrifuged (3500 rpm, 5 min) to precipitate out serum proteins. The resulting supernatant including the authentic CB251 (1.0 mg/2.0 mL of CH3CN, 20 μL) was filtered through a 0.45 μm GH Polypro (GHP) membrane Disc filter before HPLC analysis to determine the fraction of intact radiotracer. Samples were analysed by HPLC (Waters, Xterra RP-18, 5 μm, 4.6 × 250 mm; eluant: 60% CH3CN/H2O; flow rate: 1 mL/min; guard column 10 × 10 mm).

[3] = Log D determination (n-octanol / sodium phosphate buffer pH 7.4); assay type: physicochemical; settings: n-octanol / sodium phosphate buffer 0.15 M pH 7.4, measured four times
Description: After vortexing for 1 min, each tube was then stored for 3 min at room temperature and the phases were separated. Samples of each phase (100 μL) were counted for radioactivity. Log D is expressed as the logarithm of the ratio of the counts from n-octanol versus that of the sodium phosphate buffer.

TSPO, sequence (P16257 whole entry): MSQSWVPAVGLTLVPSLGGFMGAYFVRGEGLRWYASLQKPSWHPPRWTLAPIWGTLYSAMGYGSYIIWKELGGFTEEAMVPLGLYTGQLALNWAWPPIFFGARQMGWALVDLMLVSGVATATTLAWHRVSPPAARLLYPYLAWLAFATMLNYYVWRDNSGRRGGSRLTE

With `CCCN(CCC)C(=O)Cc1c(-c2ccc(OCC[18F])cc2)nc2c(Cl)cc(Cl)cn12` [[^18F]CB251, 2-(2-(4-(2-[^18F]fluoroethoxy)phenyl)-6,8-dichloroimidazo[1,2-a]pyridin-3-yl)-N,N-dipropylacetamide] the “uptake ratio between the ipsilateral area and the contralateral area” value (TSPO; 30 min post injection) was 2.35 times, the “uptake of [18F]CB251 in the ipsilateral area after PBR28 injection” value (TSPO; displacement, PBR28 5 mg/kg intravenously 30 min after flumazenil) was “decreased significantly; also recorded: significantly decreased” and the “uptake of [18F]CB251 in the ipsilateral region after flumazenil” value (TSPO; displacement, flumazenil 5 mg/kg intravenously at 15 min post injection) was “did not prevent the uptake”. For the same compound, the “binding potential of the specifically bound radioligand relative to the non-displaceable radioligand in tissue (BPND)” value (TSPO; ipsilateral striatum, contralateral striatum as reference, Logan plot with reference tissue input) was 1.83 ± 0.18, the “uptake in the skull” value (TSPO; summed microPET images) was “no significant uptake” and the tumour uptake ([1]; male, Balb/c nu/nu, 1 h) was 1.96 ± 0.11 %ID/g. For the same compound, the “bladder and muscle uptake” value [1] was “low”, the kidney uptake [1] was “high” and the “radioactive parent remaining in human serum” value [2] was “greater than 99%”. The logD [3] was 3 ± 0.03.
